Laboratory results published in ChEMBL document CHEMBL4422633, “Antioxidant-Inspired Drug Discovery: Antitumor Metabolite Is Formed in Situ from a Hydroxycinnamic Acid Derivative upon Free-Radical Scavenging” (J Med Chem, 2019).

Experiments:
A549 = test: Cytotoxicity against human A549 cells assessed as reduction in cell viability after 72 hrs by MTT assay; type: functional, cell-based; settings: A549, 72 h
HaCaT [1] = test: Cytotoxicity against human HaCaT cells assessed as reduction in cell viability after 72 hrs by MTT assay; type: cell-based
[2] = Cytotoxicity against mouse L5178B1 cells transfected with pHa MDR1/A retrovirus assessed as reduction in cell viability after 72 hrs by MTT assay; type: functional, cell-based; settings: MDR1, 72 h
NCI-H460 [3] = test: Cytotoxicity against human NCI-H460 cells assessed as reduction in cell viability after 72 hrs by MTT assay; type: functional, cell-based; settings: NCI-H460, 72 h
NCI-H460 [4] = test: Induction of apoptosis in human NCI-H460 cells assessed as early apoptotic cells at 40 nM after 24 hrs by Annexin V/propidium iodide-staining based flow cytometry (reference value: 0.45 +/- 0.01%); type: functional
[5] = Cytotoxicity against mouse L5178 cells assessed as reduction in cell viability after 72 hrs by MTT assay; type: functional, cell-based; settings: L5178, 72 h
NCI-H460 [6] = test: Induction of apoptosis in human NCI-H460 cells assessed as necrotic cells at 40 nM after 24 hrs by Annexin V/propidium iodide-staining based flow cytometry (reference value: 2.13 +/- 0.02%); type: functional
HaCaT [7] = test: Induction of apoptosis in human HaCaT cells assessed as late apoptotic cells at 40 nM after 24 hrs by Annexin V/propidium iodide-staining based flow cytometry (reference value: 0.93 +/- 0.04%); type: cell-based; settings: 0.04 µM
[8] = Induction of apoptosis in human HaCaT cells assessed as viable cells at 40 nM after 24 hrs by Annexin V/propidium iodide-staining based flow cytometry (reference value: 95.63 +/- 3.83%); type: cell-based; settings: read-out: Activity
SiHa = test: Cytotoxicity against human SiHa cells assessed as reduction in cell viability after 72 hrs by MTT assay; type: functional, cell-based
HaCaT [9] = test: Induction of apoptosis in human HaCaT cells assessed as necrotic cells at 40 nM after 24 hrs by Annexin V/propidium iodide-staining based flow cytometry (reference value: 1.88 +/- 0.02%); type: cell-based; settings: 0.04 µM
NCI-H460 [10] = test: Induction of apoptosis in human NCI-H460 cells assessed as viable cells at 40 nM after 24 hrs by Annexin V/propidium iodide-staining based flow cytometry (reference value: 96.49 +/- 0.96%); type: functional; settings: NCI-H460, 24 h, read-out: Activity
NCI-H661 = test: Cytotoxicity against human NCI-H661 cells assessed as reduction in cell viability after 72 hrs by MTT assay; type: functional, cell-based; settings: NCI-H661, 72 h
HaCaT [11] = test: Induction of apoptosis in human HaCaT cells assessed as early apoptotic cells at 40 nM after 24 hrs by Annexin V/propidium iodide-staining based flow cytometry (reference value: 0.23 +/- 0.01%); type: cell-based; settings: 0.04 µM
NCI-H460 [12] = test: Induction of apoptosis in human NCI-H460 cells assessed as late apoptotic cells at 40 nM after 24 hrs by Annexin V/propidium iodide-staining based flow cytometry (reference value: 0.93 +/- 0.04%); type: functional
[13] = Cytotoxicity against human NCI-H460/R cells transfected with MDR assessed as reduction in cell viability after 72 hrs by MTT assay; type: functional, cell-based; settings: NCI-H460, 72 h

Structure (SMILES): COc1cccc2c1C(=O)c1c(O)c3c(c(O)c1C2=O)C[C@@](O)(C(=O)CO)C[C@@H]3O[C@H]1C[C@H](N)[C@H](O)[C@H](C)O1 [DOXORUBICIN]
- IC50 (A549): 550 nM
- IC50 (HaCaT [1]): 30 nM
- IC50 [2]: 11800 nM
- IC50 (NCI-H460 [3]): 40 nM
- Activity (NCI-H460 [4]): 4.05%
- IC50 [5]: 410 nM
- Activity (NCI-H460 [6]): 6.7%
- Activity (HaCaT [7]): 3.04%
- viability at 24 h, 0.04 µM [8]: 78.1%
- IC50 (SiHa): 760 nM
- Activity (HaCaT [9]): 7.82%
- viability at 0.04 µM (NCI-H460 [10]): 85.1%
- IC50 (NCI-H661): 350 nM
- Activity (HaCaT [11]): 11.03%
- Activity (NCI-H460 [12]): 4.11%
- IC50 [13]: 1890 nM
